The pIC50 is the negative decadic logarithm of the IC50, by convention in mol/L.

Consider 33 compounds from US9108957B2 (MITSUBISHI TANABE PHARMA CORPORATION, priority 2009, dated 2015).

Molecules are shown by their SMILES. pIC50: −log10 of the molar value.

human recombinant TPK1, sequence (P49841 whole entry): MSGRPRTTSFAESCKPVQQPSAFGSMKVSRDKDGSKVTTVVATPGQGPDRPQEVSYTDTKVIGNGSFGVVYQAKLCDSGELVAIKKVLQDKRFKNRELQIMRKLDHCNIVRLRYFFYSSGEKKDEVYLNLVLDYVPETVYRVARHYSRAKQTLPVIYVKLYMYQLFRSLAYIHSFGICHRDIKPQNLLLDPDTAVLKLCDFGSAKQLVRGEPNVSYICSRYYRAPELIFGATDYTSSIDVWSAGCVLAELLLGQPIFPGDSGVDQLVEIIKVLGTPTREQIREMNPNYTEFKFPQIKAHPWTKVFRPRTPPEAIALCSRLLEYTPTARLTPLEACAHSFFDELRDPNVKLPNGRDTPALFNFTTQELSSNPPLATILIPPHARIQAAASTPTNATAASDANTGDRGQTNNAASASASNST

This assay has as its target human recombinant TPK1 (Homo sapiens, UniProt P49841). As to the kind of experiment: Inhibitory activity against P-GS1 phosphorylation by TPK1 (Kinase Glo luminescence). Particulars: 7.5 μM P-GS1, 10 μM ATP, 25° C. for 16 hours, Kinase Glo Reagent luminescent signal. The assay is classed as biochemical. The method, then:
Inhibitory Activity of the Medicament of the Present Invention Against P-GS1 Phosphorylation by Bovine Cerebral TPK1
A mixture containing 100 mM HEPES-sodium hydroxide (pH 7.2), 1 mM magnesium acetate, 1 mM EGTA, 1 mM dithiothreitol (DTT), 0.02% Tween 20, 7.5 μM P-GS1, 10 μM ATP, human recombinant TPK1 and a compound shown in Table (a final mixture contained 1% DMSO deriving from a solution of a test compound prepared in the presence of 10% DMSO) was used as a reaction system. The phosphorylation was started by adding ATP, and the reaction was conducted at 25° C. for 16 hours. Then equal volume of Kinase Glo Reagent (Promega) was added to the mixture and luminescent signal from the mixture was measured. IC50 for each compound was calculated by setting the data of mixture without enzyme as 0% activity and that without compound as 100% activity.
(In general: In Kinase-Glo more light means more ATP remaining.)
`Cc1nc(-c2ccc([C@@H]3CN(c4nc(-c5ccncc5F)cc(=O)n4C)CCCO3)cc2)no1` [Compound A052, (R)-2-[2-[4-(5-methyl-1,2,4-oxadiazol-3-yl)-phenyl]-1,4-oxazepan-4-yl]-6-(3-fluoropyridin-4-yl)-3-methylpyrimidin-4(3H)-one]: the negative-log IC50 (pIC50) is 7.04.
Under `Cc1noc(-c2ccc([C@H]3CN(c4nc(-c5ccncc5)cc(=O)n4C)CCCO3)cc2)n1` [Compound A036, (S)-2-[2-[4-(3-methyl-1,2,4-oxadiazol-5-yl)-phenyl]-1,4-oxazepan-4-yl]-3-methyl-6-(pyridin-4-yl)pyrimidin-4(3H)-one] stands 7.54.
Under `Cn1c(N2CCCO[C@H](c3ccc(C(N)=O)cc3)C2)nc(-c2ccncc2F)cc1=O` [Compound A038, (R)-2-[2-(4-aminocarbonylphenyl)-1,4-oxazepan-4-yl]-6-(3-fluoropyridin-4-yl)-3-methylpyrimidin-4(3H)-one] stands 7.51; under `Cn1c(N2CCCO[C@@H](c3cccc(C#N)c3)C2)nc(-c2ccncc2F)cc1=O` [Compound A020], 7.94; under `Cc1nc(-c2ccc(C3CCN(c4nc(-c5ccncc5F)cc(=O)n4C)CCO3)cc2)no1` (single isomer, unassigned; (+)) [Compound A091, (+)-2-[7-[4-(5-methyl-1,2,4-oxadiazol-3-yl)-phenyl]-1,4-oxazepan-4-yl]-6-(3-fluoropyridin-4-yl)-3-methylpyrimidin-4(3H)-one], 8.17.
Under `CCC1CCOCCN1c1nc(-c2ccncn2)cc(=O)n1C` (stereo not drawn) [Compound A073, 3-methyl-2-(5-ethyl-1,4-oxazepan-4-yl)-6-(pyrimidin-4-yl)pyrimidin-4(3H)-one] stands 6.71; under `Cn1c(N2CCOC(c3ccc(Br)cc3)CC2)nc(-c2ccncn2)cc1=O` (single isomer, unassigned; (-)) [Compound A122, (−)-2-(7-(4-bromophenyl)-1,4-oxazepan-4-yl)-3-methyl-6-(pyrimidin-4-yl)pyrimidin-4(3H)-one], 6.94.
Consider `Cn1c(N2CCCO[C@@H](c3ccc(C#N)cc3)C2)nc(-c2ccncc2F)cc1=O` [Compound A013, (S)-2-[2-(4-cyanophenyl)-1,4-oxazepan-4-yl]-6-(3-fluoropyridin-4-yl)-3-methylpyrimidin-4(3H)-one], for which the negative-log IC50 (pIC50) was 8.14.
The figure for `Cn1c(N2CCCOCC2c2ccccc2)nc(-c2ccncn2)cc1=O` (stereo in doubt) [Compound A065, (S)-3-methyl-2-(3-phenyl-1,4-oxazepan-4-yl)-6-(pyrimidin-4-yl)pyrimidin-4(3H)-one] is 7.01; for `CC1COCCN(c2nc(-c3ccncc3F)cc(=O)n2C)C1` (stereo not drawn) [Compound A084, 2-(6-methyl-1,4-oxazepan-4-yl)-6-(3-fluoropyridin-4-yl)-3-methylpyrimidin-4(3H)-one] it is 7.82.
For `CC1CN(c2nc(-c3ccncc3F)cc(=O)n2C)CCCO1` (stereo not drawn) [Compound A041, 2-(2-methyl-1,4-oxazepan-4-yl)-6-(3-fluoropyridin-4-yl)-3-methylpyrimidin-4(3H)-one], the negative logarithm of the IC50 (pIC50) was 7.46.
Under `Cc1nc(-c2ccc(C3CCN(c4nc(-c5ccncn5)cc(=O)n4C)CCO3)cc2)no1` (single isomer, unassigned; (+)) [Compound A100, (+)-2-[7-[4-(5-methyl-1,2,4-oxadiazol-3-yl)-phenyl]-1,4-oxazepan-4-yl]-3-methyl-6-(pyrimidin-4-yl)pyrimidin-4(3H)-one] stands 7.82.
Under `COc1ccc(C2CCN(c3nc(-c4ccncc4)cc(=O)n3C)CCO2)cc1` (stereo not drawn) [Compound A118, 2-(7-(4-methoxyphenyl)-1,4-oxazepan-4-yl)-3-methyl-6-(pyridin-4-yl)pyrimidin-4(3H)-one] stands 7.23; under `Cn1c(N2CCOC(c3ccc(Br)cc3)CC2)nc(-c2ccncc2F)cc1=O` (single isomer, unassigned; (+)) [Compound A114, (+)-2-(7-(4-bromophenyl)-1,4-oxazepan-4-yl)-6-(3-fluoropyridin-4-yl)-3-methylpyrimidin-4(3H)-one], 7.46; under `Cn1c(N2CCCOCC2)nc(-c2ccncc2F)cc1=O` [Compound A001, 6-(3-fluoropyridin-4-yl)-3-methyl-2-(1,4-oxazepan-4-yl)pyrimidin-4(3H)-one], 7.56.
Under `Cc1nc(-c2ccc([C@@H]3COCCN(c4nc(-c5ccncn5)cc(=O)n4C)C3)cc2)no1` [Compound A085, (S)-2-[6-[4-(5-methyl-1,2,4-oxadiazol-3-yl)-phenyl]-1,4-oxazepan-4-yl]-3-methyl-6-(pyrimidin-4-yl)pyrimidin-4(3H)-one] stands 7.78; under `Cn1c(N2CCCO[C@@H](c3ccc(F)cc3)C2)nc(-c2ccncc2F)cc1=O` [Compound A011, (S)-2-[2-(4-fluorophenyl)-1,4-oxazepan-4-yl]-6-(3-fluoropyridin-4-yl)-3-methylpyrimidin-4(3H)-one], 8.22.
As for `Cc1noc(-c2cccc([C@H]3CN(c4nc(-c5ccncc5F)cc(=O)n4C)CCCO3)c2)n1` [Compound A032, (S)-2-[2-[3-(3-methyl-1,2,4-oxadiazol-5-yl)-phenyl]-1,4-oxazepan-4-yl]-6-(3-fluoropyridin-4-yl)-3-methylpyrimidin-4(3H)-one], the pIC50 was 7.67.
On to `Cn1c(N2CCOC(c3ccc(Br)cc3)CC2)nc(-c2ccncc2)cc1=O` (single isomer, unassigned; (+)) [Compound A119, (+)-2-[7-(4-bromophenyl)-1,4-oxazepan-4-yl]-3-methyl-6-(pyridin-4-yl)pyrimidin-4(3H)-one], for which the pIC50 is 7.14.
On to `C[C@@H]1COCCCN1c1nc(-c2ccncn2)cc(=O)n1C` [Compound A064, (R)-3-methyl-2-(3-methyl-1,4-oxazepan-4-yl)-6-(pyrimidin-4-yl)pyrimidin-4(3H)-one], for which the negative-log IC50 (pIC50) is 7.63.
For `Cc1noc(-c2cccc([C@@H]3CN(c4nc(-c5ccncc5F)cc(=O)n4C)CCCO3)c2)n1` [Compound A059, (R)-2-[2-[3-(3-methyl-1,2,4-oxadiazol-5-yl)-phenyl]-1,4-oxazepan-4-yl]-6-(3-fluoropyridin-4-yl)-3-methylpyrimidin-4(3H)-one], the pIC50 was 6.62.
Under `CC1CN(c2nc(-c3ccncn3)cc(=O)n2C)CCCO1` (stereo not drawn) [Compound A051, 2-(2-methyl-1,4-oxazepan-4-yl)-3-methyl-6-(pyrimidin-4-yl)pyrimidin-4(3H)-one] stands 7.10; under `Cn1c(N2CCCO[C@@H](c3ccc(Br)cc3)C2)nc(-c2ccncc2F)cc1=O` [Compound A010, (S)-2-[2-(4-bromophenyl)-1,4-oxazepan-4-yl]-6-(3-fluoropyridin-4-yl)-3-methylpyrimidin-4(3H)-one], 8.26.
As for `COc1cccc(C2CCN(c3nc(-c4ccncc4)cc(=O)n3C)CCO2)c1` (stereo not drawn) [Compound A109, 2-[7-(3-methoxyphenyl)-1,4-oxazepan-4-yl]-3-methyl-6-(pyridin-4-yl)pyrimidin-4(3H)-one], the negative-log IC50 (pIC50) was 7.55.
Turning to `Cn1c(N2CCOCC(c3ccc(-c4ncno4)cc3)C2)nc(-c2ccncn2)cc1=O` (stereo not drawn) [Compound A080, 2-[6-[4-(1,2,4-oxadiazol-5-yl)-phenyl]-1,4-oxazepan-4-yl]-3-methyl-6-(pyrimidin-4-yl)pyrimidin-4(3H)-one], the negative-log IC50 (pIC50) is 7.97.
Take `Cn1c(N2CCOC[C@@H](c3ccc(Br)cc3)C2)nc(-c2ccncn2)cc1=O` [Compound A074, (S)-2-[6-(4-bromophenyl)-1,4-oxazepan-4-yl]-3-methyl-6-(pyrimidin-4-yl)pyrimidin-4(3H)-one]: the pIC50 was 8.92.
Under `CC1COCCN(c2nc(-c3ccncn3)cc(=O)n2C)C1` (stereo not drawn) [Compound A087, 2-(6-methyl-1,4-oxazepan-4-yl)-3-methyl-6-(pyrimidin-4-yl)pyrimidin-4(3H)-one] stands 7.10.
Turning to `Cn1c(N2CCOC(c3ccccc3F)CC2)nc(-c2ccncc2F)cc1=O` (stereo not drawn) [Compound A014, 2-[7-(2-fluorophenyl)-1,4-oxazepan-4-yl]-6-(3-fluoropyridin-4-yl)-3-methylpyrimidin-4(3H)-one], the pIC50 was 8.09.
`Cn1c(N2CCCO[C@H](c3cccc(Br)c3)C2)nc(-c2ccncc2F)cc1=O` [Compound A025, (R)-2-[2-(3-bromophenyl)-1,4-oxazepan-4-yl]-6-(3-fluoropyridin-4-yl)-3-methylpyrimidin-4(3H)-one]: the pIC50 was 7.86.
For `COc1ccc(C2CCN(c3nc(-c4ccncc4F)cc(=O)n3C)CCO2)cc1` (stereo not drawn) [Compound A095, 2-[7-(4-methoxyphenyl)-1,4-oxazepan-4-yl]-6-(3-fluoropyridin-4-yl)-3-methylpyrimidin-4(3H)-one], the pIC50 was 7.97.
For the compound `Cc1noc(-c2ccc(C3COCCN(c4nc(-c5ccncc5F)cc(=O)n4C)C3)cc2)n1` (stereo not drawn) [Compound A077, 2-[6-[4-(3-methyl-1,2,4-oxadiazol-5-yl)-phenyl]-1,4-oxazepan-4-yl]-6-(3-fluoropyridin-4-yl)-3-methylpyrimidin-4(3H)-one], the pIC50 is 8.23.
Turning to `Cn1c(N2CCCO[C@@H](c3ccc(Br)cc3)C2)nc(-c2ccncc2)cc1=O` [Compound A021, (S)-2-[2-(4-bromophenyl)-1,4-oxazepan-4-yl]-3-methyl-6-(pyridin-4-yl)pyrimidin-4(3H)-one], the negative-log IC50 (pIC50) is 7.92.
In the case of `COc1cccc(C2CCN(c3nc(-c4ccncn4)cc(=O)n3C)CCO2)c1` (stereo not drawn) [Compound A101, 2-[7-(3-methoxyphenyl)-1,4-oxazepan-4-yl]-3-methyl-6-(pyrimidin-4-yl)pyrimidin-4(3H)-one], the pIC50 is 7.82.
